The test system of experiment [1] is MES-induced seizure (full body tonic extension). Description: Maximal Electroshock Test (MES), anticonvulsant activity. The experiment is classed as in vivo, CF-1 male albino mice. Particulars: oral; for MES @100 mpk: (number of mice with full body tonic extension prevented)/(total number of mice tested) / MES @100 mpk, result in words: 100 mg/kg; for MES @100 mpk, result in words: mice, time not given; for MES @ 300 mpk: (number of mice with full body tonic extension prevented)/(total number of mice tested): 300 mg/kg. On the procedure: Anticonvulsant activity was determined using the MES test, run according to the procedure described in detail below. Swinyard E A, Woodhead J H, White H S, Franklin M R. Experimental selection, quantification, and evaluation of anticonvulsants. In Levy R H, et al., eds. Antiepileptic Drugs. 3rd ed. New York: Raven Press, 1989:85-102 CF-1 male albino mice (25-35 g) were fasted for 16 hours before testing. Mice were randomly selected into control and test groups, with the animals dosed with vehicle or test compound, at varying concentrations, respectively. On the study date, at 30 minutes prior to shock, the mice were orally dosed with vehicle (0.5% methylcellulose) or test compound (100-300 mg/kg). Seizures were induced by trans-corneal electric shock using a 60-Hz alternating current, 50 mA, delivered for 0.2 sec. The mice in the test groups were subjected to electrical stimulus at time intervals between 15 minutes and 4 hours following administration of test compound. […] The test was complete when the entire course of the convulsion has been observed (typically, less than 1 minute after electrical stimulation), and the mice were then immediately euthanized by carbon dioxide inhalation. Abolition of the full body tonic extensor component of the seizure was taken as the endpoint of the test. […] The ED50 value of the test compound (calculated when appropriate) was the calculated dose required to block the hind limb tonic-extensor component of the MES-induced seizure in 50% of the rodents tested. A probit analysis was used to calculate the ED50 and 95% fiducial limits (FL). Representative compounds of the present invention were tested according to the procedure described above, with results as listed in Table 6 below. Results are listed as (number of mice with full body tonic extension prevented)/(total number of mice tested) (@ a given time).
A general note: In the maximal electroshock model the usual endpoint is tonic extension of the hind limbs.

A further experiment deals with carbonic anhydrase. Conditions: background statement, figure not given; cited from earlier work.

Regarding `NS(=O)(=O)NCc1csc2ccccc12` [Compound 1, N-(benzo[b]thien-3-ylmethyl)-sulfamide], the results for the “MES @100 mpk: (number of mice with full body tonic extension prevented)/(total number of mice tested)” value in experiment [1] (0.5 h after dosing), in experiment [1] (2 h after dosing) and in experiment [1] (4 h after dosing) were 1/5 (0.5 h), 3/5 (2 h) and 2/5 (4 h), respectively.

Take `NS(=O)(=O)NCc1csc2ccc(Cl)cc12` [Compound 3, N-[(5-chlorobenzo[b]thien-3-yl)methyl]-sulfamide]: in experiment [1], the “MES @100 mpk, result in words” value is “inactive”. Further, the “MES @ 300 mpk: (number of mice with full body tonic extension prevented)/(total number of mice tested)” value (from here on “MES @ 300 mpk”) in experiment [1] (0.5 hr after dosing) is reported as 0/5 (0.5 hr); in experiment [1] (2 hr after dosing), 3/5 (2 hr); in experiment [1] (4 hr after dosing), 1/5 (4 hr).

On to `NS(=O)(=O)NCc1coc2ccccc12` [Compound 6, N-(3-benzofuranylmethyl)-sulfamide], for which, in experiment [1], the “MES @100 mpk, result in words” value was “inactive”. Also, the “MES @ 300 mpk” value was 5/5 (0.5 hr) in experiment [1] (0.5 hr after dosing), 0/5 (2 hr) in experiment [1] (2 hr after dosing) and 0/5 (4 hr) in experiment [1] (4 hr after dosing).

In the case of `Cn1cc(CNS(N)(=O)=O)c2ccccc21` [Compound 7, N-[(1-methyl-1H-indol-3-yl)methyl]-sulfamide], the “MES @100 mpk, result in words” value in experiment [1] is “inactive”. In addition, the “MES @ 300 mpk” value in experiment [1] (0.5 hr after dosing) is 5/5 (0.5 hr); in experiment [1] (2 hr after dosing), 0/5 (2 hr); in experiment [1] (4 hr after dosing), 0/5 (4 hr).

As for `NS(=O)(=O)NCc1csc2ccc(F)cc12` [Compound 8, N-[(5-fluorobenzo[b]thien-3-yl)methyl]-sulfamide], the “MES @100 mpk: (number of mice with full body tonic extension prevented)/(total number of mice tested)” value in experiment [1] (0.5 h after dosing) is given as 0/5 (0.5 h); in experiment [1] (2 h after dosing), 4/5 (2 h); in experiment [1] (4 h after dosing), 1/5 (4 h).

With `CC(NS(N)(=O)=O)c1csc2ccccc12` (stereo not shown) [Compound 9, N-(1-benzo[b]thien-3-ylethyl)-sulfamide], the “MES @100 mpk: (number of mice with full body tonic extension prevented)/(total number of mice tested)” value in experiment [1] (0.5 h after dosing) was 1/5 (0.5 h); in experiment [1] (2 h after dosing), 0/5 (2 h); in experiment [1] (4 h after dosing), 0/5 (4 h).

As to `NS(=O)(=O)NCc1cccc2ccccc12` [Compound 10, N-(1-naphthalenylmethyl)-sulfamide], the “MES @100 mpk: (number of mice with full body tonic extension prevented)/(total number of mice tested)” value is given as 2/5 (0.5 h) in experiment [1] (0.5 h after dosing), 1/5 (2 h) in experiment [1] (2 h after dosing) and 0/5 (4 h) in experiment [1] (4 h after dosing).

For `Cc1oc2ccccc2c1CNS(N)(=O)=O` [Compound 13], the “MES @100 mpk: (number of mice with full body tonic extension prevented)/(total number of mice tested)” value is on record as 4/5 (0.5 h) in experiment [1] (0.5 h after dosing), 0/5 (2 h) in experiment [1] (2 h after dosing) and 0/5 (4 h) in experiment [1] (4 h after dosing).

Turning to `NS(=O)(=O)NCc1csc2ccc(Br)cc12` [Compound 15, N-[(5-bromobenzo[b]thien-3-yl)methyl]-sulfamide], the “MES @ 300 mpk” value in experiment [1] (0.5 hr after dosing) is on record as 0/3 (0.5 hr); in experiment [1] (2 hr after dosing), 0/3 (2 hr); in experiment [1] (4 hr after dosing) it was 1/3 (4 hr).

On to `NS(=O)(=O)NCc1csc2cccc(Br)c12` [Compound 17, N-[(4-bromobenzo[b]thien-3-yl)methyl]-sulfamide], for which the “MES @ 300 mpk” value is recorded as 0/3 (0.5 hr) in experiment [1] (0.5 hr after dosing), 0/3 (2 hr) in experiment [1] (2 hr after dosing) and 1/3 (4 hr) in experiment [1] (4 hr after dosing).

As to `NS(=O)(=O)NCc1csc2c(F)cccc12` [Compound 18, N-[(7-fluorobenzo[b]thien-3-yl)methyl]-sulfamide], the “MES @ 300 mpk” value is listed as 0/3 (0.5 hr) in experiment [1] (0.5 hr after dosing), 2/3 (2 hr) in experiment [1] (2 hr after dosing) and 0/3 (4 hr) in experiment [1] (4 hr after dosing).

On to `CC1(C)O[C@@H]2[C@@H](CO[C@@]3(COS(N)(=O)=O)OC(C)(C)O[C@@H]23)O1` [Topiramate], for which the carbonic anhydrase inhibition result in the experiment with carbonic anhydrase is “single digit micromolar”.

The values are drawn from patent US20060276528A1, “Novel benzo-fused heteroaryl sulfamide derivatives useful as anticonvulsant agents” (priority 2004, published 2006).
